Molecular target: T1, hCXCR2-CHO overexpressing membranes (Homo sapiens, UniProt P25025)
T1 construct: purchased Biosignal; host or cells: CHO cells (membranes)
T1 sequence (P25025 1-360): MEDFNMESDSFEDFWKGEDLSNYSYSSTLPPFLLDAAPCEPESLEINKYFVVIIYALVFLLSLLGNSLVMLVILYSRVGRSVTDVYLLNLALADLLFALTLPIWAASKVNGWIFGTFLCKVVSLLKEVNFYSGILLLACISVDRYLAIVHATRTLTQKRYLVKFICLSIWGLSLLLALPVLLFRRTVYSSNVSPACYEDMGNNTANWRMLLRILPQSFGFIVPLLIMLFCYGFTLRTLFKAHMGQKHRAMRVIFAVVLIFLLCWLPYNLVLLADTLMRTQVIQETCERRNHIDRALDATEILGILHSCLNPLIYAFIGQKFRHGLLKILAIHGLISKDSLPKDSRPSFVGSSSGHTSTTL
Assay: CXCR2 SPA Assay
Format: binding
Details: [125I]-IL-8 0.1 nM
Experimental: For each well of a 96 well plate, a reaction mixture of 4 μg hCXCR2-CHO overexpressing membranes (Biosignal) and 200 μg/well WGA-SPA beads (Amersham) in 100 μl was prepared in CXCR2 assay buffer (25 mM HEPES, pH 7.4, 2 mM CaCl2, 1 mM MgCl2). A 0.4 nM stock of ligand, [125I]-IL-8 (NEN), was prepared in the CXCR2 assay buffer. 20× stock solutions of test compounds were prepared in DMSO (Sigma). A 6× stock solution of GRO-α (R&D) was prepared in CXCR2 assay buffer. The above solutions were added to a 96-well assay plate (PerkinElmer or Corning) as follows: 10 μl test compound or DMSO, 40 ul CXCR2 assay buffer or GRO-α stock, 100 μl of reaction mixture, 50 μl of ligand stock (Final [Ligand]=0.1 nM). When 40× stock solutions of test compounds in DMSO were prepared, then the above protocol was used except instead 5 μl test compound or DMSO and 45 μl CXCR2 assay buffer were used. The assay plates were shaken for 5 minutes on a plate shaker, then incubated for 2-8 hours before cpm/well were determined in Microbeta Trilux counter (PerkinElmer). % Inhibition of total binding minus non-specific binding (250 nM Gro-α or 50 μM antagonist) was determined and IC50 values calculated.

Ki: 0.8 nM
Compound: CC[C@@H](Nc1c(Nc2cccc(C(=O)N(C)C)c2O)c(=O)c1=O)c1cc(C(C)C)co1 [Example 360.106]
